Data as given in patent US20060079510A1, “Use of PARP-1 inhibitors for protecting tumorcidal lymphocytes from apoptosis” (priority 2004, published 2006).
“Also recorded” adds a separate entry of the source.

What was measured:
[1] = test system: AML; test: Treatment of subjects with AML in remission (Example 1); format: in vivo, human; conditions: 3-aminobenzamide s.c. (50 mg/day) with histamine dihydrochloride, IL-2, cytarabine and thioguanine, 21-day cycles
Method: Subjects with AML in a first, second, subsequent or complete remission are treated in 21-day courses with IL-2 (35-50 μg (equivalent to 6.3-9×10^5 IU) subcutaneously (s.c.). twice daily), repeated with three to six-week intermissions and continued until relapse. In cycle #1, patients receive three weeks of low dose chemotherapy consisting of 16 mg/m^2/day cytarabine, and 40 mg/day thioguanine. Concomitantly, patients are injected subcutaneously with an effective amount of a pharmaceutically acceptable form of a PARP-1 inhibitor, 3-aminobenzamide. Additionally, the patients are administered an effective amount of a pharmaceutically acceptable form of histamine dihydrochloride to boost circulating histamine to a beneficial level twice daily (above 0.2 μmole/L). Histamine levels can be continually boosted to beneficial levels by administering histamine dihydrochloride by injection at 0.2 to 2.0 mg or 3-10 μg/kg twice daily in a pharmaceutically acceptable form of a ROM inhibitory compound during the IL-2 treatment. Thereafter, the subjects are allowed to rest for three to six weeks. After the rest period at the end of the first cycle (cycle #1), the second cycle (cycle #2) is initiated. […]

[2] = test system: neoplastic disease and/or viral infection; test: Treatment of subjects with neoplastic disease and/or viral infection (Example 4); format: in vivo, human; conditions: CEP-6800 250 mg/day with IL-2, interferon-α and histamine, repeated every 4-6 weeks
Method: Subjects in need of enhanced cytotoxic lymphocyte activity, because of a neoplastic disease, and/or a viral infection such as hepatitis B (HBV), hepatitis C(HCV), human immunodeficiency virus (HIV), human papilloma virus (HPV) or herpes simplex virus (HSV) type 1 or 2, or other viral infections, are administered 250 mg/day of CEP-6800, a PARP-1 inhibitor. Additionally, subjects are administered human recombinant IL-2 (Proleukin®, Eurocetus) by subcutaneous injection or by continuous infusion of 27 μg/kg/day on days 1-5 and 8-12. The subjects also receive a daily dose of 6×10^6 U interferon-α administered by a suitable route, such as subcutaneous injection. This treatment also includes administering 0.2 to 2.0 mg or 3-10 μg/kg of histamine injected 1, 2, or more times per day in conjunction with the administration of IL-2 and/or interferon-α.
The above procedure is repeated every 4-6 weeks until an objective regression of the tumor is observed, or until improvement in the viral infection occurs. The therapy can be continued even after a first, second, or subsequent complete remission has been observed. In patients with complete responses, the therapy can be given with longer intervals between cycles. […]

[3] = test system: peripheral blood lymphocytes; test: Oxidant-induced cell death in lymphocytes incubated with mononuclear phagocytes or hydrogen peroxide, flow cytometry; format: cell-based, human; conditions: for protection of lymphocytes from phagocyte-induced cell death (FIG. 1): overnight with autologous mononuclear phagocytes, catalase 200 U/ml, histamine, DPI 3 μM, p<0.001, n=4; for protection of lymphocytes from phagocyte- or hydrogen peroxide-induced (oxidant/ROS-induced) cell death / apoptosis: pretreatment, PJ34 250 nM, DPQ 3 μM, Z-VAD.fmk 100 μM, overnight incubation with phagocytes or H2O2
Method: Peripheral venous blood was obtained as freshly prepared leukopacks from healthy blood donors at the Blood Centre, Sahlgren's Hospital, Göteborg, Sweden, to study the activation characteristics of cytotoxic lymphocytes in the presence and absence of MO, and ROM inhibitors. The blood (65 ml) was mixed with 92.5 ml Iscove's medium, 35 ml 6% Dextran (Kabi Pharmacia, Stockholm, Sweden) and 7.5 ml acid citrate dextrose (ACD) (Baxter, Deerfield, Ill.). After incubation for 15 minutes at room temperature, the supernatant was carefully layered onto Ficoll-Hypaque (Lymphoprep, Myegaard, Norway). Mononuclear cells (MNC) were collected at the interface after centrifugation at 380 g for 15 minutes at room temperature, washed twice in PBS and resuspended in Iscove's medium supplemented with 10% human AB^+ serum. During all further separation of cells, the cell suspensions were kept in siliconized test tubes (Vacuette, Greiner, Stockholm).
The MNC were further separated into lymphocyte and monocyte (MO) populations using the counter-current centrifugal elutriation (CCE) technique originally described by Yasaka and co-workers (Yasaka, T. et al., J. Immunol., 127:1515) with modifications as described in Hansson, M., et al. (J. Immunol., 156: 42 (1996); hereby incorporated by reference). Briefly, the sedimentation rate of cells in a spinning rotor was balanced by a counter-directed flow through the chamber. By slowly increasing the flow rate, fractions of cells of well-defined sizes were collected. The MNC were resuspended in elutration buffer containing 0.5% BSA (ICN Biomedicals Inc., Aurora, Ohio) and 0.1% EDTA (VWR, Göteborg, Sweden) in buffered NaCl and fed into a Beckman J2-21 ultracentrifuge with a JE-6B rotor (Bechman Coulter Inc., Fullerton, Calif.) at 2100 rpm. A fraction with >90% MO was obtained at a flow rate of 19 ml/min. A lymphocyte fraction enriched for NK-cells (CD3^−/56^+ phenotype) and T-cells (CD3^+/56^−) was recovered at flow rates of 14-15 ml/min. This fraction contained <3% MO and consisted of CD3ε^−/56^+ NK-cells (45-50%), CD3ε^+/56^− T-cells (35-40%), CD3ε^−/56^− cells (5-10%), and CD3ε^+/56^+ cells (1-5%), as judged by flow cytometry. In some experiments, dynabeads (Dynal A/S, Oslo, Norway) coated with anti-CD56 were used to obtain purified lymphocyte preparations of T-cells, as described in detail by Hansson, M., et al., incorporated above.
Briefly, lymphocytes were incubated overnight with autologous mononuclear phagocytes in the presence or absence of catalase (200 U/ml), histamine ([…]) or DPI (3 μM).
Briefly, lymphocytes, pretreated with PJ34 (250 ηM), Z-VAD.fmk (100 μM) or medium, were subjected to mononuclear phagocytes at different Mo/Ly ratios (FIG. 5A) or to different concentrations of H2O2 (FIG. 5C). FIGS. 5A-5D illustrate that PJ34 protected lymphocytes from cell death induced by phagocytes ([…], ratio 1:1, p<0.05) and hydrogen peroxide (FIGS. 5C and 5D, 250 μM, p<0.001).

[4] = test system: tumoricidal lymphocytes; test: Tumor-killing function of tumoricidal lymphocytes after phagocyte or hydrogen peroxide exposure; format: cell-based, human; conditions: PJ34 250 nM or DPQ 3 μM
Excerpt: As detailed above, a significant part of the dysfunction of tumor-killing lymphocytes at the site of malignant tumor growth has been attributed to inhibitory signals from tumor-infiltrating or tumor-adjacent phagocytes. […] However, the molecular events underlying phagocyte-induced lymphocyte apoptosis are not fully understood. The role of two enzyme systems responsible for induction and execution of apoptosis, caspases and the poly(ADP-ribose) polymerase (PARP) were investigated. Human tumoricidal lymphocytes were incubated with autologous mononuclear phagocytes or with exogenously added hydrogen peroxide, and assayed for apoptotic features at various time points. […] It is therefore believed that PARP-dependent cell death may be critically involved in phagocyte-dependent, oxygen free radical-induced cell death.

[5] = test system: caspase-3; test: Caspase activation in lymphocytes, FLICA assay (FAM-VAD.fmk), flow cytometry; format: cell-based, human; conditions: overnight, phagocytes ratio 1:1 or H2O2 250 μM; PJ34 pretreatment printed as 250 μM and 250 ηM
Method: To study the role of caspases for ROS-induced cell death in anti-neoplastic cells, lymphocytes subjected to phagocytes or hydrogen peroxide were assayed for binding of a fluorochrome-conjugated caspase-3 inhibitor. Briefly, lymphocytes were incubated overnight with hydrogen peroxide (250 μM) or ROS-producing phagocytes (Ph, ratio 1:1) and then assayed for caspase activation using a Fluorochrome-Labeled Inhibitor of Caspases (FLICA) assay. Lymphocytes were incubated with a FITC-labeled caspase inhibitor (FAM-VAD.fmk, MP Biomedicals, Irvine, Calif.) for one hour according to the instructions provided by the manufacturer, and the percentage of cells with active caspase-3 was determined using flow cytometry. Caspase-3 activation was also monitored using the fluorogenic caspase-3 substrate PhiPhiLux (Oncolmmunin, Gaithersburg, Md.) according to the manufacturer's instructions. The FLICA reagent traverses the membranes of all cells and bind to the active site of activated caspase 3. Thus, only cells with activated caspases will retain the reagent and become fluorescent.
Briefly, after overnight incubation with mononuclear phagocytes (Ph, ratio 1:1) or hydrogen peroxide (250 μM) in the presence or absence of PJ34 (250 μM), lymphocytes were stained with a FITC-labeled caspase inhibitor (FAM-VAD.fmk) and assayed for caspase activation using flow cytometry. […]

[6] = test system: Hepatitis C; test: Treatment of subjects suffering from Hepatitis C (Example 3); format: in vivo, human; conditions: PJ34 100 mg/day intravenously, three weeks
Method: Subjects suffering from Hepatitis C are identified. Individuals are administered 100 mg/day of a PARP-1 inhibitor, PJ34, intravenously for a period of three weeks.

[7] = test system: lymphocytes; test: Altered mitochondrial transmembrane potential (Mitochondrial Membrane Sensor Kit) and To-Pro-3 staining; format: cell-based, human; conditions: H2O2 250 μM or mononuclear phagocytes; PJ34 250 μM as printed
Method: A Mitochondrial Membrane Sensor Kit (BD Clontech) was used to identify cells with altered mitochondrial transmembrane potential according to the manufacturer's protocol.
Briefly, lymphocytes exposed to hydrogen peroxide (250 μM) were assayed for altered mitochondrial transmembrane potential and plasma membrane integrity at various time points. Depolarization of the Ψm is seen as an increase in green fluorescence (mitosensor monomers).

[8] = test system: NK cells; conditions: H2-receptor antagonist or agonist; cited from earlier work
[9] = vs subjects without PARP-1 inhibitor

Q: With `NC(=O)c1cccc(N)c1` [3-aminobenzamide] as the molecule, how does the “clinical outcome in AML” value [1] read?
A: reduction in cancer

Q: With `NCc1ccc2[nH]c3c4c(c5c(c3c2c1)C(=O)NC5=O)CCC4` [CEP-6800] as the molecule, how does the “viral infection or tumor mass” value [2] read?
A: reduction in viral infection or tumor mass

Q: For `c1ccc([I+]c2ccccc2)cc1` [DPI, diphenyliodonium], which “protection of lymphocytes from phagocyte-induced cell death (FIG. 1)” value [3] is on record?
A: fully protected

Q: Which “restoration of tumor-killing function” value [4] does the source give for `O=C1NCCc2c(OCCCCN3CCCCC3)cccc21` [DPQ] here?
A: restored

Q: What about the “protection of lymphocytes from phagocyte- or hydrogen peroxide-induced (oxidant/ROS-induced) cell death / apoptosis” value [3] of the same molecule?
A: completely protected; also recorded: resisted the oxidative stress

Q: Which “restoration of tumor-killing function” value [4] does the source give for `CN(C)CC(=O)Nc1ccc2[nH]c(=O)c3ccccc3c2c1` [PJ34] here?
A: restored

Q: What about the “caspase activation triggered by phagocytes and H2O2 (FIG. 3)” value [5] of the same molecule?
A: reversed

Q: What about the “protection from cell death induced by hydrogen peroxide (FIGS. 5C and 5D)” value ([3]; PJ34 250 ηM, H2O2 250 μM, p<0.001) of the same molecule?
A: protected

Q: What about the “protection from cell death induced by phagocytes” value ([3]; PJ34 250 ηM, Mo/Ly ratio 1:1, p<0.05) of the same molecule?
A: protected

Q: What about the “protection of lymphocytes from phagocyte- or hydrogen peroxide-induced (oxidant/ROS-induced) cell death / apoptosis” value [3] of the same molecule?
A: completely protected; also recorded: resisted the oxidative stress

Q: What about the “symptoms associated with Hepatitis C” value [6] of the same molecule?
A: reduction in symptoms associated with Hepatitis C

Q: What about the ROM-mediated damage [6, 9] of the same molecule?
A: reduction in ROM-mediated damage

Q: What about the cytotoxic lymphocyte activation [6, 9] of the same molecule?
A: increase in cytotoxic lymphocyte activation

Q: And the “protection from oxidant-induced alterations of Ψm (FIG. 4)” value [7]?
A: protected

Q: Which “effect of histamine on granulocyte mediated suppression of antibody dependent cytotoxicity of NK cells” value [8] does the source give for `CN(C)CCCSC(=N)N` [dimaprit] here?
A: mimicked

Q: With `CNC(=C[N+](=O)[O-])NCCSCc1ccc(CN(C)C)o1` [ranitidine] as the molecule, how does the “effect of histamine on granulocyte mediated suppression of antibody dependent cytotoxicity of NK cells” value [8] read?
A: blocked

Q: For Q-VD.OPh, which “protection of lymphocytes from phagocyte- or hydrogen peroxide-induced (oxidant/ROS-induced) cell death / apoptosis” value [3] is on record?
A: failed to protect

B1: catalase: H2O2 scavenger (Boehringer-Mannheim) (protein, UniProt P00432 2-527, looked up)
Catalase: ADNRDPASDQMKHWKEQRAAQKPDVLTTGGGNPVGDKLNSLTVGPRGPLLVQDVVFTDEMAHFDRERIPERVVHAKGAGAFGYFEVTHDITRYSKAKVFEHIGKRTPIAVRFSTVAGESGSADTVRDPRGFAVKFYTEDGNWDLVGNNTPIFFIRDALLFPSFIHSQKRNPQTHLKDPDMVWDFWSLRPESLHQVSFLFSDRGIPDGHRHMNGYGSHTFKLVNANGEAVYCKFHYKTDQGIKNLSVEDAARLAHEDPDYGLRDLFNAIATGNYPSWTLYIQVMTFSEAEIFPFNPFDLTKVWPHGDYPLIPVGKLVLNRNPVNYFAEVEQLAFDPSNMPPGIEPSPDKMLQGRLFAYPDTHRHRLGPNYLQIPVNCPYRARVANYQRDGPMCMMDNQGGAPNYYPNSFSAPEHQPSALEHRTHFSGDVQRFNSANDDNVTQVRTFYLKVLNEEQRKRLCENIAGHLKDAQLFIQKKAVKNFSDVHPEYGSRIQALLDKYNEEKPKNAVHTYVQHGSHLSAREKANL
Q: With B1 as the molecule, how does the “protection of lymphocytes from phagocyte-induced cell death (FIG. 1)” value [3] read?
A: fully protected
